# According to patent publication US9920053B2, “N-(hetero)aryl-substituted heteroyclic derivatives useful for the treatment of diseases or conditions related to the central nervous system” (CHRONOS THERAPEUTICS LIMITED, priority 2014, dated 2018):
# Legend:
# [1] = biological target: human dopamine transporter (DAT) (Homo sapiens (Human), UniProt Q01959); assay: Scintillation Proximity Assay (SPA) for human DAT binding ([3H]WIN-35,428); settings: recombinant human DAT, CHO
# Excerpt: (§1) Affinity is expressed in terms of inhibition constant (Ki) of the compounds of the invention for DAT, NET and SERT, and it is typically calculated from the IC50 values obtained in competition experiments using Cheng and Prusoff equation (Cheng and Prusoff, Biochem. Pharmacol. 22:3099, 1973). In the context of the present invention pKi values (corresponding to the antilogarithm of Ki) are used instead of Ki; pKi are only estimated to be accurate to about 0.3 log unit.
# (§2) Chinese Hamster Ovary (CHO) cells stably expressing either human DAT (hDAT-CHO) or human NET (hNET-CHO) or human SERT (hSERT-CHO) are used for the membrane preparations for radioligand binding assays using Scintillation proximity Assay (SPA) technique. Each cell line is cultured independently in F-12K Nutrient Mixture containing 10% of Fetal Bovine Serum (FBS) supplemented with 450 μg/ml G-418. When cells are at 70-80% of confluence 3 mM Na Butyrate was added to the cell culture medium. After 24 h of incubation, the culture medium was removed and the cells detached with Versene (DAT) or by scraping (NET and SERT). Cell suspension is centrifuged at 41,000 g for 10 minutes at 4° C. The resultant pellets are re-suspended in 15 volumes of Ice-cold buffer (20 mM HEPES, 145 mM NaCl, 5 mM KCl, pH7.3), homogenized using an Ultra Turrax homogeniser and centrifuged as before. The resultant membrane pellets are re-suspended in up to 15 volume of ice-cold buffer, incubated for 20 minutes at 37° C and centrifuged as before at 41,000 g. The final membrane pellets are re-suspended into 5-10 volumes of ice-cold buffer, dispensed into 0.5 ml aliquots and stored at −80° C. until use. Protein concentration for each preparation is determined using Bio-Rad Protein Assay Kit.
# (§3) The affinity of the compounds of the invention to the human DAT or NET or SERT transporters is assessed by using the [^3H]WIN-35,428 or [^3H]nisoxetine or [^3H]citalopram binding assays in recombinant human DAT, NET and SERT membranes with the SPA technology. The final assay volume is 50 μL in 384 well plates.
# (§4) Briefly, 0.5 μL of test compound in neat DMSO or 0.5 μL of DMSO for total binding (TB) or 0.5 μL of indatraline 1 mM (10 μM final concentration) for non specific binding (NSB) are added to the assay plate. 50 μL of the SPA mixture is added to each well, containing: 30 μg/mL or 10 μg/mL or 25 μg/mL DAT, NET, SERT membranes, respectively; 5 nM [^3H]WIN-35,428 or 5 nM [^3H]nisoxetine or 1 nM [^3H]citalopram, for DAT, NET, SERT assay, respectively; 2.5 mg/mL or 1 mg/mL or 4 mg/mL WGA-PVT SPA beads (PerkinElmer RPNQ0001, for DAT, NET, SERT assay, respectively. All components are added to Assay Buffer (20 mM HEPES pH 7.4, 145 mM NaCl, 5 mM KCl, 0.01% Pluronic F-127). 0.02% BSA was used for DAT binding only. Plates are sealed with Topseal A and centrifuged 1 min, 800 rpm. Plates are loaded into a 1450 Microbeta TriLux (Perkin-Elmer) plate reader and the radioactivity counted after at least 4 hrs or overnight incubation at room temperature. Curve fitting and IC50 estimations are performed using a four parameter model in XLfit (IDBS, Guilford, UK) for Microdoft Excel (Microsoft, Redmond, Wash.).
# The potency of the compounds of the invention in blocking the DAT function is measured using an uptake assay in a recombinant CHO cell line expressing human DAT (hDAT-CHO). Potency is measured in terms of pIC50 by testing the compounds of invention for the inhibition of [^3H]-dopamine uptake in DAT-CHO cells using a SPA technology in 384 well format.
# Briefly, on the days of the experiment hDAT-CHO cells are detached using Versene and added (75,000 cells/mL) to the SPA Mixture, which contains the following components in Assay Buffer (20 mM HEPES, 145 mM NaCl, 5 mM KCl, 2 mM CaCl2, 1 mM MgCl2 and 1 g/L glucose, pH 7.3): 0.02% w/v of Pluronic F127, 2 mg/mL SPA Imaging beads (RPNQ0260, PerkinElmer), 10 μM pargyline and 80 nM of [^3H]-dopamine. […]
# [2] = biological target: human norepinephrine transporter (NET) (Homo sapiens (Human), UniProt P23975); assay: Scintillation Proximity Assay (SPA) for human NET binding ([3H]nisoxetine); settings: recombinant human NET, CHO membranes
# Sequence of human norepinephrine transporter (NET) (P23975 whole entry): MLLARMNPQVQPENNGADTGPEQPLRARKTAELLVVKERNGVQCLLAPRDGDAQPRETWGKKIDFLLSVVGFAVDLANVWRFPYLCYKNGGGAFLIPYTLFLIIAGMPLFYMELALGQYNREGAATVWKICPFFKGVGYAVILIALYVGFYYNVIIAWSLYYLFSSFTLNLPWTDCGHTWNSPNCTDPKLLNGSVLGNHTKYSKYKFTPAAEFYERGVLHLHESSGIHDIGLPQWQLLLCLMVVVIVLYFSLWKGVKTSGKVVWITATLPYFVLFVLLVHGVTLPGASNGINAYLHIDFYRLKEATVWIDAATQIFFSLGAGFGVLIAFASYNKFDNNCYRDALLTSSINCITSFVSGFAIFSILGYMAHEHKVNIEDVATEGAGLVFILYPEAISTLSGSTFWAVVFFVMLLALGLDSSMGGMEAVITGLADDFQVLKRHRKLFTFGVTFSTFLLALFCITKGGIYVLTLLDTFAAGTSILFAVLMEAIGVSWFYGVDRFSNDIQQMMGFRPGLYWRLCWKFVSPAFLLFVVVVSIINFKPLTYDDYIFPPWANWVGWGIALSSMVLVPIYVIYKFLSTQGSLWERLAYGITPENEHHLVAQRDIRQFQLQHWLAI
# Excerpt: as §1, §2, §3, §4
# [3] = biological target: human serotonin transporter (SERT) (Homo sapiens (Human), UniProt P31645); assay: Scintillation Proximity Assay (SPA) for human SERT binding ([3H]citalopram); settings: recombinant human SERT, CHO membranes
# Sequence of human serotonin transporter (SERT) (P31645 whole entry): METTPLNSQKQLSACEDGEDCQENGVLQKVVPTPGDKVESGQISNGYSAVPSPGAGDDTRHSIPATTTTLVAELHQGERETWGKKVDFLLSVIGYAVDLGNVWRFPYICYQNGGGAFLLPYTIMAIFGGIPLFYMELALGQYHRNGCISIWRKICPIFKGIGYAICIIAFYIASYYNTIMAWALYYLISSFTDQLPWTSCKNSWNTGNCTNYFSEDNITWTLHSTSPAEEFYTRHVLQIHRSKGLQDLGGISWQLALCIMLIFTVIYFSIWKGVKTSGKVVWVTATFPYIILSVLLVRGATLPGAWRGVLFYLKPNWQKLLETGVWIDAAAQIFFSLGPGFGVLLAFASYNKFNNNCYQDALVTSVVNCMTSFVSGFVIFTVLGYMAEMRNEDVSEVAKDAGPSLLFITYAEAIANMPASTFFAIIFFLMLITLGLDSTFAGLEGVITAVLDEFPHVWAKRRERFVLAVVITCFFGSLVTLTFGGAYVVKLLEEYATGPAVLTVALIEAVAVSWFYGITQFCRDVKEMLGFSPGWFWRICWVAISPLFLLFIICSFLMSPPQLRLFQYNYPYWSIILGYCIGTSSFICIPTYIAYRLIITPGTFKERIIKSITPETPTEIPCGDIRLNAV
# Excerpt: as §1, §2, §3, §4
# [4] = biological target: human ERG potassium channel (hERG) (Homo sapiens (Human), UniProt Q12809); assay: hERG channel tail current recording using Rapid ICE automated patch-clamp; type: cell-based; settings: HEK293 cells stably transfected with hERG
# Sequence of human ERG potassium channel (hERG) (Q12809 whole entry): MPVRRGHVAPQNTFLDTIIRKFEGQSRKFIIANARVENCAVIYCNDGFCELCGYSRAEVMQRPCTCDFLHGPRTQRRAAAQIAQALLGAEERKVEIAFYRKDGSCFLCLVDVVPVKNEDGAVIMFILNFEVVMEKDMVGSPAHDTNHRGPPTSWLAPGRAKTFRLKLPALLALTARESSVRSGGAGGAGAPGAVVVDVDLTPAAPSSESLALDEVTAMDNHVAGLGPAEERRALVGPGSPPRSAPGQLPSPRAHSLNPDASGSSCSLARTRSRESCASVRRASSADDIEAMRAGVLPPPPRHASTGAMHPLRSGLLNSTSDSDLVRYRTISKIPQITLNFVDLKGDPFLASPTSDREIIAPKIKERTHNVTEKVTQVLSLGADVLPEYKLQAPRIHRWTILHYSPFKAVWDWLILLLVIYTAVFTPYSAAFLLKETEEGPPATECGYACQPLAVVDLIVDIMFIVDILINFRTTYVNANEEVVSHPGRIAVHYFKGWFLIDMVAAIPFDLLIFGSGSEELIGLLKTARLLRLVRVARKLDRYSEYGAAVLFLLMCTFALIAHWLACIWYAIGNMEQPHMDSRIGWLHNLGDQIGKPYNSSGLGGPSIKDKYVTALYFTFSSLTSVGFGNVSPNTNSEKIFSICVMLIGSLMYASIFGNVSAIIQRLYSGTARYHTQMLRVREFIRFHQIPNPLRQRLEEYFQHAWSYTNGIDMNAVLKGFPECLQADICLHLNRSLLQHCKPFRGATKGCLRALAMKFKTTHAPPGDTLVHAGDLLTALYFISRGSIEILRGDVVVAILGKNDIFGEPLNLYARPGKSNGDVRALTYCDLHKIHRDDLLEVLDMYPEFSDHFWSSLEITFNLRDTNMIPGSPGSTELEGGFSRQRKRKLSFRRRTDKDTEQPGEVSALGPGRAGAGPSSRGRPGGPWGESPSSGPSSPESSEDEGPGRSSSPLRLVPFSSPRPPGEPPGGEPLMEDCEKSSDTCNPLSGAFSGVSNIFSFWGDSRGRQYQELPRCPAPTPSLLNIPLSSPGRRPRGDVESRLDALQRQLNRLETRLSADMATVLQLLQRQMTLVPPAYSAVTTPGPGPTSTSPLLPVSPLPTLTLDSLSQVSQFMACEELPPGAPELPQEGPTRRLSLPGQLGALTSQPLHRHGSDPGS
# Method: The potency of the compounds of the invention in inhibiting human ERG potassium channel (hERG) tail current is assessed in a recombinant HEK293 cell line stably transfected with hERG cDNA using Rapid ICE™ (Rapid Ion Channel Electrophysiology) assay. Rapid ICE™ is an automated patch-clamp assay utilizing the PatchXpress 7000A system (Molecular Devices Corporation) or the QPatch HTX system (Sophion Bioscience A/S).
# Briefly cells are cultivated for 24 to 72 hours before recordings in minimum essential medium supplemented with 10% FBS, 1% non-essential amino acids, 1% sodium pyruvate, 2 mM L-glutamine. The day of the experiment cells are detached with TrypLE and prepared to be loaded on the instrument. For PatchXpress cells are finally resuspended in 150 μl of Extracellular Buffer whereas for QPatch cells are resuspended in 7 ml Serum-Free Media containing 25 mM Hepes and Soybean trypsin inhibitor and immediately placed in the cell storage tank of the machine. The composition of the Extracellular Buffer is (mM): NaCl 137; KCl 4; CaCl2 1.8; MgCl2 1.0; D-glucose 10; N 2 hydroxyethylpiperazine-N′-2-ethanesulfonic acid (HEPES) 10; pH 7.4 with 1 M NaOH. The composition of the pipette solution is (mM): KCl 130; MgCl2 1.0; Ethylene glycol-bis(β-aminoethyl ether)-N,N,N′,N′-tetraacetic acid (EGTA) 5; MgATP 5; HEPES 10; pH 7.2 with 1 M KOH. The voltage protocol includes the following steps: step from −80 mV to −50 mV for 200 ms, +20 mV for 4.8 s, step to −50 mV for 5 s then step to the holding potential of −80 mV. Compounds of the invention are dissolved in DMSO and diluted in Extracellular Buffer to achieve final test concentrations (0.1, 1 and 10 μM) in 0.1% DMSO. The voltage protocol is run and recorded continuously during the experiment. The vehicle, corresponding to 0.1% DMSO in Extracellular Buffer, is then applied for 3 min followed by the test substance in triplicate. The standard combined exposure time is 5 min. The average of tail current amplitude values recorded from 4 sequential voltage pulses is used to calculate for each cell the effect of the test substance by calculating the residual current (% control) compared with vehicle pre-treatment. Data are reported as % inhibition for each concentration tested and IC50 values are estimated using DataXpress or QPatch software. At least two cells are tested, more if results diverge.
# Sequence of human dopamine transporter (DAT) (Q01959 whole entry): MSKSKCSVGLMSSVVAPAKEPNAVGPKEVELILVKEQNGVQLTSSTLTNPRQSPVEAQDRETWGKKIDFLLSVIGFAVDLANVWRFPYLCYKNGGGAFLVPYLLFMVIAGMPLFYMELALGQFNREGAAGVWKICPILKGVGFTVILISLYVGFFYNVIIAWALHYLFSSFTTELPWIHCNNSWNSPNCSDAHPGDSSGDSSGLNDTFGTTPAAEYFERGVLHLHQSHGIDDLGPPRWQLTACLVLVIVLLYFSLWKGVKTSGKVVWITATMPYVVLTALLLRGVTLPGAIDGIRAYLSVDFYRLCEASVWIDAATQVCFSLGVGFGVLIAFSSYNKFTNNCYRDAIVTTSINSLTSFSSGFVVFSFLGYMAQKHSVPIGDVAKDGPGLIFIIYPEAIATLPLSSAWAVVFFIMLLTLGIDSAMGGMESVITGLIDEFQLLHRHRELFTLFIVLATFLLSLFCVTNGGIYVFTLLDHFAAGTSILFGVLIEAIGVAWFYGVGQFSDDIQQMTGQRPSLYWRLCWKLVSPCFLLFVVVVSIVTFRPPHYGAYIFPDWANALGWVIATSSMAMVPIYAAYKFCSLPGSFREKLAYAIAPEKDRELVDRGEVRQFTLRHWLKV
compound,measurement,setting,value
"Fc1cccc(Oc2cc(C(F)(F)F)nc(N3CCc4nc[nH]c4C3)n2)c1 [Example 36, 4-(3-fluorophenoxy)-2-{3H,4H,5H,6H,7H-imidazo[4,5-c]pyridin-5-yl}-6-(trifluoromethyl)pyrimidine]",pIC50 DAT,[1],7.90
same,pIC50 NET,[2],6.01
same,IC50,[3],> 100 µM
same,pIC50 hERG,[4],5.6
"OC1(CNC2CC2)CCN(c2nc(Oc3cccc(F)c3)cc(C(F)(F)F)n2)CC1 [Example 3, 4-[(cyclopropylamino)methyl]-1-[4-(3-fluorophenoxy)-6-(trifluoromethyl)pyrimidin-2-yl]piperidin-4-ol]",pIC50 DAT,[1],8.13
same,pIC50 NET,[2],6.42
same,IC50,[3],21.4 µM
same,pIC50 hERG,[4],6.0
"CN(C)CC1(O)CCN(c2nc(Oc3cccc(F)c3)cc(C(F)(F)F)n2)CC1 [Example 1, 4-[(dimethylamino)methyl]-1-[4-(3-fluorophenoxy)-6(trifluoromethyl)pyrimidin-2-yl]piperidin-4-ol]",pIC50 DAT,[1],8.46
same,pIC50 NET,[2],7.00
same,IC50,[3],13.5 µM
same,pIC50 hERG,[4],6.6
"NCC1(F)CCN(c2nc(Oc3cccc(F)c3)cc(C(F)(F)F)n2)CC1 [Example 13, {4-fluoro-1-[4-(3-fluorophenoxy)-6-(trifluoromethyl)pyrimidin-2-yl]piperidin-4-yl}methanamine]",pIC50 DAT,[1],8.31
same,pIC50 NET,[2],6.40
same,IC50,[3],7.24 µM
same,pIC50 hERG,[4],5.4
"Cl.Fc1cccc(Oc2cc(C(F)(F)F)nc(N3CCC4NCCCC4C3)n2)c1 (stereo not shown) [Example 39, 6-[4-(3-fluorophenoxy)-6-(trifluoromethyl)pyrimidin-2-yl]-decahydro-1,6-naphthyridine hydrochloride]",pIC50 DAT,[1],8.90
same,pIC50 NET,[2],7.51
same,IC50,[3],3.02 µM
same,pIC50 hERG,[4],6.2
"CN(CC1(O)CCN(c2nc(Oc3cccc(F)c3)cc(C(F)(F)F)n2)CC1)C1CC1 [Example 4, 4-{[cyclopropyl(methyl)amino]methyl}-1-[4-(3-fluorophenoxy)-6-(trifluoromethyl)pyrimidin-2-yl]piperidin-4-ol]",pIC50 DAT,[1],7.38
same,pIC50 NET,[2],6.19
same,IC50,[3],> 100 µM
same,pIC50 hERG,[4],6.1
(3S or 3R)-3-[(cyclopropylamino)methyl]-1-[4-(3-fluorophenoxy)-6-(trifluoromethyl)pyrimidin-2-yl]pyrrolidin-3-ol [Example 31],pIC50 DAT,[1],8.75
same,pIC50 NET,[2],6.86
same,pIC50 SERT,[3],4.46
same,pIC50 hERG,[4],5.7
